Results reported in US20210382058A1, “PATIENT SELECTION FOR TREATMENT OF MYC POSITIVE CANCERS WITH INDENOISOQUINOLINES” (Purdue Research Foundation, priority 2020, published 2021).
Read-outs that look alike come from different tables or passages of the source.

How the values were obtained:
NCI-60 cancer cell lines = test: NCI-60 cancer cell line drug screen (GI50, MGM); assay type: cell-based, human; details: Homo sapiens; for GI50: read-out: Antiproliferative Activities [GI50 (μM)]
Protocol: Cancer cells were incubated with the test compounds at five concentrations ranging from 100 μM to 10 nM for 48 h. […] The approximate average of GI50 values across the entire panel of NCI-60 cancer cell lines for each compound was recorded as the MGM value.

human topoisomerase I = target: T1, human topoisomerase I (Homo sapiens, UniProt P11387); details: relative topoisomerase I inhibition levels, previously determined, six levels (0 - 5, +++++ = 5); cited from earlier work
T1 sequence (P11387 1-765): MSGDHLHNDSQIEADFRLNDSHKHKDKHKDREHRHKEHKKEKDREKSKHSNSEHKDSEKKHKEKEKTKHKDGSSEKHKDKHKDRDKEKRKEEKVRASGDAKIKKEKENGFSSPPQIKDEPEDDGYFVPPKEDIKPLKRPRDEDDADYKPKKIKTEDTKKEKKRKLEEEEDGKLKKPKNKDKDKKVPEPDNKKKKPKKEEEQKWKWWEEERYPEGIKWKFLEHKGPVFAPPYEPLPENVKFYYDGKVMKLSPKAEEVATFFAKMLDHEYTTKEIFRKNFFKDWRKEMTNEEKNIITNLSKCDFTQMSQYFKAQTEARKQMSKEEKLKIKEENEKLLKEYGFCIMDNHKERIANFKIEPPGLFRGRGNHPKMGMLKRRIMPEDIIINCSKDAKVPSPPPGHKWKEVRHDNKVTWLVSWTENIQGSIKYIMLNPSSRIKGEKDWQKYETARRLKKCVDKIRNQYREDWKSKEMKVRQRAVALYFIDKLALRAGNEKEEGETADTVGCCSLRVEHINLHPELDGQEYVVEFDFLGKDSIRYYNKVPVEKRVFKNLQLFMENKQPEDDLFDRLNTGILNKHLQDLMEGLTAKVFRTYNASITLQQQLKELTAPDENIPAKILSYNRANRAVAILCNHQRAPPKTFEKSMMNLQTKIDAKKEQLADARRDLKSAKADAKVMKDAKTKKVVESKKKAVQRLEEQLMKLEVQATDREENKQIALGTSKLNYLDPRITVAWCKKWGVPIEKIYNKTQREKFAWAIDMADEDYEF

## COc1cnc2c(c1)C(=O)c1c-2n(CCCNCCN2CCOCC2)c(=O)c2cc([N+](=O)[O-])ccc12 [Compound 11]
NCI-60 cancer cell lines; 786-0, Renal Cancer, 786-0
  GI50: 0.22 µM
NCI-60 cancer cell lines; A549, Non-Small Cell Lung Cancer, A549/ATCC
  GI50: 0.12 µM
NCI-60 cancer cell lines; ACHN, Renal Cancer, ACHN
  GI50: 0.04 µM
NCI-60 cancer cell lines; BT-549, Breast Cancer, BT-549
  GI50: 0.29 µM
NCI-60 cancer cell lines; CAKI-1, Renal Cancer, CAKI-1
  GI50: 0.04 µM
NCI-60 cancer cell lines; CCRF-CEM, Leukemia, CCRF-CEM
  GI50: 0.05 µM
NCI-60 cancer cell lines; COLO 205, Colon Cancer, COLO 205
  GI50: 0.3 µM
NCI-60 cancer cell lines; DU-145, Prostate Cancer, DU-145
  GI50: 0.06 µM
NCI-60 cancer cell lines; EKVX, Non-Small Cell Lung Cancer, EKVX
  GI50: 0.45 µM
NCI-60 cancer cell lines; HCC 2998, Colon Cancer, HCC-2998
  GI50: 0.3 µM
NCI-60 cancer cell lines; HCT-15, Colon Cancer, HCT-15
  GI50: 0.3 µM
NCI-60 cancer cell lines; HL-60, Leukemia, HL-60(TB)
  GI50: 0.1 µM
NCI-60 cancer cell lines; HOP-92, Non-Small Cell Lung Cancer, HOP-92
  GI50: 0.87 µM
NCI-60 cancer cell lines; HT-29, Colon Cancer, HT29
  GI50: 0.15 µM
NCI-60 cancer cell lines; Hs-578T, Breast Cancer, HS 578T
  GI50: 3.85 µM
NCI-60 cancer cell lines; IGROV-1, Ovarian Cancer, IGROV1
  GI50: 0.42 µM
NCI-60 cancer cell lines; K562, Leukemia, K-562
  GI50: 0.23 µM
NCI-60 cancer cell lines; KM12, Colon Cancer, KM12
  GI50: 0.4 µM
NCI-60 cancer cell lines; LOX IMVI, Melanoma, LOX IMVI
  GI50: 0.04 µM
NCI-60 cancer cell lines; Leukemia, SR
  GI50: 0.02 µM
NCI-60 cancer cell lines; MCF7, Breast Cancer, MCF7
  GI50: 0.03 µM
NCI-60 cancer cell lines; MDA-MB-231, Breast Cancer, MDA-MB-231/ATCC
  GI50: 0.63 µM
NCI-60 cancer cell lines; MDA-MB-435, Melanoma, MDA-MB-435
  GI50: 0.42 µM
NCI-60 cancer cell lines; MDA-MB-468, Breast Cancer, MDA-MB-468
  GI50: 0.12 µM
NCI-60 cancer cell lines; MOLT-4, Leukemia, MOLT-4
  GI50: 0.03 µM
NCI-60 cancer cell lines; Malme-3M, Melanoma, MALME-3M
  GI50: 0.34 µM
NCI-60 cancer cell lines; Melanoma, M14
  GI50: 0.07 µM
NCI-60 cancer cell lines; NCI-H23, Non-Small Cell Lung Cancer, NCI-H23
  GI50: 0.15 µM
NCI-60 cancer cell lines; NCI-H226, Non-Small Cell Lung Cancer, NCI-H226
  GI50: 0.17 µM
NCI-60 cancer cell lines; NCI-H322M, Non-Small Cell Lung Cancer, NCI-H322M
  GI50: 0.28 µM
NCI-60 cancer cell lines; NCI-H460, Non-Small Cell Lung Cancer, NCI-H460
  GI50: 0.04 µM
NCI-60 cancer cell lines; NCI-H522, Non-Small Cell Lung Cancer, NCI-H522
  GI50: 0.08 µM
NCI-60 cancer cell lines; OVCAR-3, Ovarian Cancer, OVCAR-3
  GI50: 0.32 µM
NCI-60 cancer cell lines; OVCAR-4, Ovarian Cancer, OVCAR-4
  GI50: 0.33 µM
NCI-60 cancer cell lines; OVCAR-5, Ovarian Cancer, OVCAR-5
  GI50: 0.45 µM
NCI-60 cancer cell lines; OVCAR-8, Ovarian Cancer, OVCAR-8
  GI50: 0.17 µM
NCI-60 cancer cell lines; Ovarian Cancer, NCl/ADR-RES
  GI50: 0.13 µM
NCI-60 cancer cell lines; Prostate Cancer, PC-3
  GI50: 0.57 µM
NCI-60 cancer cell lines; RPMI-8226, Leukemia, RPMI-8226
  GI50: 0.17 µM
NCI-60 cancer cell lines; RXF 393, Renal Cancer, RXF 393
  GI50: 0.39 µM
NCI-60 cancer cell lines; Renal Cancer, U0-31
  GI50: 0.05 µM
NCI-60 cancer cell lines; SF-268, CNS Cancer, SF-268
  GI50: 0.08 µM
NCI-60 cancer cell lines; SF-295, CNS Cancer, SF-295
  GI50: 0.07 µM
NCI-60 cancer cell lines; SF-539, CNS Cancer, SF-539
  GI50: 0.31 µM
NCI-60 cancer cell lines; SK-MEL-2, Melanoma, SK-MEL-2
  GI50: 1.59 µM
NCI-60 cancer cell lines; SK-MEL-5, Melanoma, SK-MEL-5
  GI50: 0.26 µM
NCI-60 cancer cell lines; SK-MEL-28, Melanoma, SK-MEL-28
  GI50: 1.13 µM
NCI-60 cancer cell lines; SK-OV-3, Ovarian Cancer, SK-OV-3
  GI50: 0.14 µM
NCI-60 cancer cell lines; SNB-19, CNS Cancer, SNB-19
  GI50: 0.11 µM
NCI-60 cancer cell lines; SNB-75, CNS Cancer, SNB-75
  GI50: 0.27 µM
NCI-60 cancer cell lines; SW-620, Colon Cancer, SW-620
  GI50: 0.13 µM
NCI-60 cancer cell lines; T47D, Breast Cancer, T-47D
  GI50: 0.11 µM
NCI-60 cancer cell lines; TK-10, Renal Cancer, TK-10
  GI50: 0.73 µM
NCI-60 cancer cell lines; U-251, CNS Cancer, U251
  GI50: 0.08 µM
NCI-60 cancer cell lines; UACC-62, Melanoma, UACC-62
  GI50: 0.04 µM
NCI-60 cancer cell lines; UACC-257, Melanoma, UACC-257
  GI50: 0.59 µM
NCI-60 cancer cell lines; average of GI50 values across the entire panel of NCI-60 cancer cell lines
  mean GI50 across NCI-60 panel (MGM): 177 nM
Human topoisomerase I
  Top1 Inhibiton: +++ (strong inhibition, +++, MYC expression inhibited at 0.5 to 1.0 μM)
